Here are results for two compounds from paper PMC7496931, “Activation of Sirtuin 2 Inhibitors Employing Photoswitchable Geometry and Aqueous Solubility” (Chemmedchem, 2020).

Where two headings read alike, the source gives them in different places. Where only a bound is given, the exact number is not on record here.

Format in all cases: biochemical
For one experiment, the target named is T1, Sirt2 (Homo sapiens, UniProt Q8IXJ6).
T1 construct: Expression and purification of Sirt1_133−747, Sirt2_56−356, and Sirt3_118−395 was carried out as described previously; made in house
T1 sequence (Q8IXJ6 56-356): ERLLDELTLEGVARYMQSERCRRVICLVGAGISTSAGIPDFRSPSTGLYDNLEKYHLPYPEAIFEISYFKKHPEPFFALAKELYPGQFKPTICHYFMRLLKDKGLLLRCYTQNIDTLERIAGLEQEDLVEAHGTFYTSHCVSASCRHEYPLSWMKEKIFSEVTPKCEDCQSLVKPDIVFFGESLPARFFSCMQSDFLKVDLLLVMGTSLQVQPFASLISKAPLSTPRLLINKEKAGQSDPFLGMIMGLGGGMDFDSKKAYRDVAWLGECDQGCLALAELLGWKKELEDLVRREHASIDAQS
Briefly: Fluorescence-based ZMAL deacetylase activity assay, Sirt2. The essentials: (§1)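 Recombinant Sirt1_133−747, Sirt2_56−356 and Sirt3_118−395 deacetylated ZMAL, and trypsin then released AMC (ex 390/em 460 nm). Compounds were tested at 100 or 50 μM and 10 μM, with or without prior 365 nm irradiation (5 min) in DMSO. Inhibition is relative to a DMSO control, and IC50 came from a four-parameter fit over 8–10 concentrations.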

The target of the next experiment is T2, Sirt3 (Homo sapiens, UniProt Q9NTG7).
T2 construct: Expression and purification of Sirt1_133−747, Sirt2_56−356, and Sirt3_118−395 was carried out as described previously; made in house
T2 sequence (Q9NTG7 118-395): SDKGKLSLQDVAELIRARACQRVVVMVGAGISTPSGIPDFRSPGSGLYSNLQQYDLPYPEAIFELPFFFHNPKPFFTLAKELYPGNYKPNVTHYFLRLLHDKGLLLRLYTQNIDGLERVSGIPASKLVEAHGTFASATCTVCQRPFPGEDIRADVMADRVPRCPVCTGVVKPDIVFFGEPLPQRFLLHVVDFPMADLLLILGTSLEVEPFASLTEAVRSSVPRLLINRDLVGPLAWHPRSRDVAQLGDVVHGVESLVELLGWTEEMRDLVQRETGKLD
Briefly: Fluorescence-based ZMAL deacetylase activity assay, Sirt3. The note with it: @ 10 μM. The essentials:
as §1

Another experiment deals with T3, Sirt1 (Homo sapiens, UniProt Q96EB6).
T3 construct: Expression and purification of Sirt1_133−747, Sirt2_56−356, and Sirt3_118−395 was carried out as described previously; made in house
T3 sequence (Q96EB6 133-747): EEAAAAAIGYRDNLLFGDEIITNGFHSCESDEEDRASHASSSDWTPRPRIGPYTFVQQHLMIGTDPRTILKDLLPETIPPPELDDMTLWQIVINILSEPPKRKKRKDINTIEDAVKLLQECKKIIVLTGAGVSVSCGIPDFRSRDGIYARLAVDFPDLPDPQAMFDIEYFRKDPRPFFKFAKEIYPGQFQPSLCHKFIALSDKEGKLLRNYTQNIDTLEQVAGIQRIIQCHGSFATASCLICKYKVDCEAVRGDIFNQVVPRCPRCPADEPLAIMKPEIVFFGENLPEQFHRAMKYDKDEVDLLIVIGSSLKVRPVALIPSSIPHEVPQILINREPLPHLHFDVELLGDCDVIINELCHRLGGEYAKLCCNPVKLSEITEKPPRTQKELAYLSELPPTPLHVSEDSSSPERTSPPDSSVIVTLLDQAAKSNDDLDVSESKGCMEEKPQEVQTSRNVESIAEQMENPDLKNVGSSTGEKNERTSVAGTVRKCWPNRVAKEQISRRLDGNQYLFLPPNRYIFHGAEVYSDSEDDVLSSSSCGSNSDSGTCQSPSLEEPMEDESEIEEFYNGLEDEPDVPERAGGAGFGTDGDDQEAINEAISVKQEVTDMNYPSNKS
Kind of experiment: Fluorescence-based ZMAL deacetylase activity assay, Sirt1. The essentials: as §1

The mark [1] stands for this setting: PSS after 5 min UV irradiation (365 nm), read-out: Sirt3 inhibition PSS [365 nm], percent inhibition.
The mark [2] stands for this setting: thermal equilibrium (Δ), read-out: Sirt3 inhibition Δ, percent inhibition.
Setting [3] is: thermal equilibrium (Δ), read-out: Sirt1 inhibition Δ (class).

For orientation: inhibition means the relative decrease from the control value, in per cent. What is called IC50 is the concentration that inhibits the measured activity by half.

As for `CCCCCC(=O)Nc1c(C)cc(/N=N/c2cncc(C(N)=O)c2)cc1C` [9 c], the inhibition at 10 µM on Sirt2 (PSS after 5 min UV irradiation (365 nm), read-out: Sirt2 inhibition PSS [365 nm], percent inhibition (converted)) was 24%; on Sirt2 (thermal equilibrium (Δ), read-out: Sirt2 inhibition Δ, percent inhibition (converted)), 40%; on Sirt3 (setting [1]), 3%; on Sirt3 (setting [2]), 20%. Further, the inhibition at 100 µM was under 30% at Sirt1 (PSS after 5 min UV irradiation (365 nm), read-out: Sirt1 inhibition PSS [365 nm] (class)) and under 30% on Sirt1 (setting [3]).

Take `CC(C)(C)OC(=O)c1ccc(/N=N/c2cncc(C(N)=O)c2)cc1` [15 a]: the IC50 was found to be 6.8 ± 0.4 µM on Sirt2 (PSS after 5 min UV irradiation (365 nm), read-out: Sirt2 inhibition PSS [365 nm], IC50) and 6 ± 1.1 µM on Sirt2 (thermal equilibrium (Δ), read-out: Sirt2 inhibition Δ, IC50). Besides, the inhibition at 10 µM at Sirt3 (setting [1]) was 45%; at Sirt3 (setting [2]) it was 42%; on Sirt1 (@ 10 μM, PSS after 5 min UV irradiation (365 nm), read-out: Sirt1 inhibition PSS [365 nm], percent inhibition), 7%. Besides, on Sirt1 (setting [3]), the inhibition at 100 µM is under 30%.
